Laboratory results published in patent publication US20230210857A1, “RESPIRATORY STIMULANT PARENTERAL FORMULATIONS” (Enalare Therapeutics Inc., priority 2021, published 2023).

Assay: Three-phase pharmacokinetics (PK) study in minipigs, single IV and IM doses
Settings: male, Gottingen, minipig, in vivo; for AUC(0-inf): AUCINF; for AUC(0-t): AUClast; for half-life: T1/2
Protocol: The study consisted of conducting a bioequivalence (BE) study in minipigs. Two formulations of a Compound having Formula (I) (N-(4,6-Bis-n-propylamino-[1,3,5]triazin-2-yl)-O,N-dimethyl-hydroxylamine) were tested in the study as follows:
For IV administration, minipigs (n=3) received a single IV bolus (1-2 minutes) administration of the Compound having Formula (I) (N-(4,6-Bis-n-propylamino-[1,3,5]triazin-2-yl)-O,N-dimethyl-hydroxylamine) via VAP (vascular access port) at the jugular vein. For IM administration, minipigs (n=3) received a single IM administration of Compound having Formula (I) (N-(4,6-Bis-n-propylamino-[1,3,5]triazin-2-yl)-O,N-dimethyl-hydroxylamine) via the lateral neck muscle (behind the ear). The animals were dosed before noon on dosing days. The routes allowed for the determination of pharmacokinetics of Compound having Formula (I) (N-(4,6-Bis-n-propylamino-[1,3,5]triazin-2-yl)-O,N-dimethyl-hydroxylamine) from IV and IM administration.
A PK study was conducted in male Gottingen minipigs (n=3), which were administered in a single IV and subsequent IM doses using the dosing scheme outlined in Table 25. There was a minimum of 3 day washout period between dose events.
The mean dose for IV dose Group 1 was 4.79+/−0.012 mg/kg. The mean dose for IM dose Group 2 was 4.82+/−0.036 mg/kg. The mean dose for IM dose Group 3 was 4.79+/−0.033 mg/kg. All through groups nominal doses were 4.8 mg/kg. These does were based on the nominal concentrations of the Compound having Formula (I) (N-(4,6-Bis-n-propylamino-[1,3,5]triazin-2-yl)-O,N-dimethyl-hydroxylamine) in the dose formulations (purity, water, and salt content corrected).
For IV administration, minipigs (n=3) received a single IV bolus (1-2 minutes) administration of Compound having Formula (I) (N-(4,6-Bis-n-propylamino-[1,3,5]triazin-2-yl)-O,N-dimethyl-hydroxylamine) via a Vascular access port (VAP) in the jugular vein. For IM administration, minipigs (n=3) received a single IM administration of each IM formulation via the lateral neck muscle (behind the ear). For each dose event, blood samples were collected at 8 time points: 0.083, 0.167, 0.25, 0.5, 1, 2, 4 and 24 hours post dose. General observations were conducted twice-daily for any treatment-related effects/toxicity and/or tolerability. Table 26 includes the Plasma Concentration Descriptive Statistics of Compound having Formula (I) (N-(4,6-Bis-n-propylamino-[1,3,5]triazin-2-yl)-O,N-dimethyl-hydroxylamine). Table 27 illustrates the plasma concentration pharmacokinetic parameters of Compound having Formula (I) (N-(4,6-Bis-n-propylamino-[1,3,5]triazin-2-yl)-O,N-dimethyl-hydroxylamine).
The plasma concentration descriptive statistics of the compound having Formula (I) (N-(4,6-Bis-n-propyl amino-[1,3,5]triazin-2-yl)-O,N-dimethyl-hydroxyl amine) are presented in Table 28.
The T1/2 values were 3.0 hours for IV Group 1 and 3.2 hours and 2.7 hours for IM Groups 2 and 3, respectively.
For each dose level, Cmax was higher for IV dosing than for IM dosing whereas AUClast was higher for IM dosing than for IV dosing.
The IV and IM bioavailability of a Compound having Formula (I) (N-(4,6-Bis-n-propylamino-[1,3,5]triazin-2-yl)-O,N-dimethyl-hydroxylamine) is presented in Table 30.
The IV formulation single injection yielded higher Cmax and shorter time to Cmax(Tmax). […] From the present pharmacokinetic study, it is believed that IM Formulation 1 is a simple formulation with high solubility and shorter Tmax, while IM Formulation 2 has higher absorption in both rats and minipig.

[1] = iv, 4.8 mg/kg, Mean plasma concentration

bioavailability: 117.2% | bioavailability (Bioavailability): 113% | AUClast (im, 4.8 mg/kg): 2.711 µg·h/mL | T1/2 (im, 4.8 mg/kg): 2.7 h | AUC(0-inf) (im, 4.8 mg/kg): 2.71 µg·h/mL | AUC(0-t) (im, 4.8 mg/kg): 2.62 µg·h/mL | Cmax (im, 4.8 mg/kg): 0.466 µg/mL | half-life (im, 4.8 mg/kg): 3.2 h | Tmax (im, 4.8 mg/kg): 0.5 h | AUC(0-inf) (iv, 4.8 mg/kg): 2.32 µg·h/mL | AUC(0-t) (iv, 4.8 mg/kg): 2.31 µg·h/mL | bioavailability (iv, 4.8 mg/kg, Bioavailability): 100% | Cmax (iv, 4.8 mg/kg): 2.82 µg/mL | concentration at 0.083 hr [1]: 2.82 µg/mL | concentration at 0.167 hr [1]: 2.01 µg/mL | concentration at 0.25 hr [1]: 1.5 µg/mL | concentration at 0.5 hr [1]: 1.02 µg/mL | concentration at 1 hr [1]: 0.519 µg/mL | concentration at 2 hr [1]: 0.186 µg/mL | concentration at 4 hr [1]: 0.04 µg/mL | concentration at 24 hr [1]: 0.0008 µg/mL | half-life (iv, 4.8 mg/kg): 3 h | Tmax (iv, 4.8 mg/kg): 0.083 h
Structure (SMILES): CCCNc1nc(NCCC)nc(N(C)OC)n1 [active agent, N-(4,6-Bis-n-propylamino-[1,3,5]triazin-2-yl)-O,N-dimethyl-hydroxylamine]
